{"source": "patent US20150306011A1", "about": "“METHODS FOR USING SOY PEPTIDES TO INHIBIT H3 ACETYLATION, REDUCE EXPRESSION OF HMG-COA REDUCTASE AND INCREASE LDL RECEPTOR AND SP1 EXPRESSION IN A MAMMAL” (priority 2014, published 2015)", "key": {"[1]": {"tested_on": "histone H3 acetylation by PCAF", "test": "PCAF histone acetylase (HAT) assay, core histones from HeLa cells as template, immunoblot", "type": "biochemical", "protocol": "Acid extracted protein from untreated (untrt) HeLa cells was used as template in histone acetylase reactions using HAT enzyme, PCAF, in the presence or absence of 10 uM lunasin. Reaction products were immunoblotted and stained with antibodies against diacetylated histone H3. Untrt (−) is the histone template control, NaB (+) correspond to acid extracted histones from NaButyrate treated HeLa cells (positive control). […] Numbers in parenthesis indicate densitometer readings relative to the untreated control (set as 1) in PCAF HAT reaction products.\nAcid extracted histones isolated from untreated (untrt) HeLa cells were used in PCAF HAT reactions, immunoblotted and stained with antibodies to H3 Ac-Lys9 and H3 Ac-Lys14. Untrt (−) is the histone template control, NaB (+) correspond to acid extracted histones from NaButyrate treated HeLa cells (posititve control), +Lun correspond to 10 uM lunasin treated histone template and −Lun correspond to non-lunasin treated. […] Numbers in parenthesis indicate densitometer readings relative to the signal level of lunasin/lunasin treatment (set as 1) in immunoblots stained with Ac-Lys14 H3.\n[…] H3 histone acetylation by PCAF histone acetylase enzyme is required for the SREBP activation of genes involved in cholesterol biosynthesis including HMG-CoA reductase (9). Previous study has shown that lunasin is a potent inhibitor of histone H3 acetylation in mammalian cells exposed to the histone deacetylase inhibitor, sodium butyrate (NaB) (4). To determine the effect of lunasin on histone H3 acetylation by PCAF, HAT assay reaction using acid-extracted histones from untreated HeLa cells as template was conducted. […]\nThe HAT bioactivity assay was conducted using acid extracted core histones from HeLa cells (Upstate/Millipore) as a template (temp (−) control) for the PCAF catalyzed HAT reaction. […] The numbers below the legend indicate relative densitometer readings normalized using immunosignal from the template (temp). […]"}, "[2]": {"tested_on": "HMG-CoA reductase expression in HepG2 cells", "test": "Western blot of HMG-CoA reductase expression in HepG2 cells in cholesterol-free media", "type": "cell-based", "details": "10 uM synthetic lunasin, 24 hours, cholesterol-free media 24 hours", "protocol": "(§1) FIG. 2 is a photograph of a Western blot analysis (top) and a table (below) showing densitometer values indicating the relative levels of expression of HMG-CoA reductase in HepG2 cells that were (CFM+LS (24)) or were not (CFM) treated with lunasin for 24 hours prior to incubation in cholesterol free media (CFM) for 24 hours to activate sterol regulatory element binding proteins (SREBP.) After incubations, total protein was extracted and 10 ug protein was loaded onto 10% Tris-glycine gels, electroblotted onto nitrocellulose membrane, and immunostained with primary antibodies raised against HMG-CoA reductase and actin (to show equal loading of proteins.) Spot densitometer values represent mean and standard deviation of data from three separate experiments.\nIn the first experiment, HepG2 cells (1×10^6) were treated with or without 10 uM synthetic lunasin in DMEM with 10% FBS for 24 hours before growth media was replaced with cholesterol-free media to activate SREBP. After 24 hours, total protein was extracted and 10 ug protein was loaded onto 10% Tris-glycine gels, electroblotted onto nitrocellulose membrane, and immunostained with primary antibodies raised against HMG-CoA reductase and actin (to show equal loading of proteins). […]"}, "[3]": {"tested_on": "tumor formation in mammalian cells", "details": "1,000 nM (5 μg/ml) to 10,000 nM (50 μg/ml) lunasin; cited from earlier work"}, "[4]": {"tested_on": "LDL-receptor expression in HepG2 cells", "test": "Western blot of LDL receptor expression in HepG2 cells in cholesterol-free media", "type": "cell-based", "details": "10 uM synthetic lunasin, 24 hours, cholesterol-free media 24 hours", "protocol": "as §1, with “FIG. 3” for “FIG. 2”, “of LDL receptor” for “of HMG-CoA reductase”, “were (CFM +LS(24))” for “were (CFM+LS (24))”, “activate SREBP.” for “activate sterol regulatory element binding proteins (SREBP.)”, “against LDL-receptor” for “against HMG-CoA reductase”\nIn the second experiment, HepG2 cells (1×10^6) were treated with or without 10 uM synthetic lunasin in DMEM with 10% FBS for 24 hours before growth media is replaced with cholesterol-free media to activate SREBP. After 24 hours, total protein was extracted and 10 ug proteins loaded onto 10% Tris-glycine gels, electroblotted onto nitrocellulose membrane, and immunostained with primary antibodies raised against LDL-receptor and actin (to show equal loading of proteins). Spot densitometer values were obtained by digital scanning and Un-Scan It software, and represent mean and standard deviation of data from three separate experiments."}, "[5]": {"tested_on": "Sp1 expression in HepG2 cells", "test": "Western blot of Sp1 levels in HepG2 cells", "type": "cell-based", "details": "10 uM synthetic lunasin, one experiment", "protocol": "FIG. 4 is a photograph of a Western blot analysis (top) and a table (below) showing densitometer values indicating the relative levels of expression of Sp1 in HepG2 cells that were grown from confluence in growth media for 24 hours before growth media was replaced with fresh growth media (Media), media with lunasin (Media+LS) or cholesterol free media with lunasin (CFM+LS) or without lunasin (CFM). Samples were then incubated for 24 or 48 hours as indicated. […]\nUnlike HMG-CoA reductase, SREBP activation of LDL-receptor by sterol depletion requires increased recruitment of Sp1 co-activator to a site adjacent to SREBP in the promoter/regulatory sequence of LDL-receptor gene (25). […] To test this hypothesis, the level of Sp1 was determined in lunasin-treated growth media and cholesterol-free media by Western analysis using Sp1 antibody, as follows: HepG2 cells (1×10^6) were grown from confluence in DMEM with 10% FBS for 24 hours before growth media was replaced with fresh growth media or cholesterol-free media (to activate SREBP) and treated with, or without 10 uM synthetic lunasin. […]"}, "[6]": {"tested_on": "histone H3 acetylation by PCAF", "test": "PCAF HAT bioactivity assay, core histones from chicken erythrocyte as template", "type": "biochemical", "details": "around 10 ug sample protein with 1 ug core histones; versus untreated control", "protocol": "Lunasin-enriched soy concentrate with soy flour (LeSC+SF) retains bioactivity even when digested with digestive enzymes. Biological activity of LeSC (A), LeSC+SF (B), digested LeSC+SF (C), digested LeSC (D), digested soy protein isolate (E) and digested soy concentrate (F) was measured using the H3 histone acetyltransferase (HAT) assay (see Example 8.) Around 100 mg total protein of LeSC, LeSC+SF, soy protein isolate and soy concentrate were digested by mixing pancreatin (Sigma Life Sciences, Saint Louis, Mo.) at 1:1 (w/w) and incubating for 30 min. at 40° C. To confirm that the HAT assay is working, treatment with synthetic lunasin (+synL) was included. Synthetic lunasin reduced acetylation of histone H3 by the histone acetylase enzyme, PCAF, using core histones isolated from chicken erythrocyte (Upstate/Millipore, Billerica, Mass.) as template for the HAT assay. […]\nCore histones purified from chicken erythrocyte cells were used as templates in histone acetylase (HAT) reactions using PCAF histone acetylase enzyme, in the presence or absence of around 2-10 uM lunasin. […] Chemiluminescent signals from antibody complexes were visualized using standard chemiluminescent reagents and exposed to Kodak BioMAX film, developed and spot densitometer measured by using digital scanner and UN-SCAN-IT software program from Silk Scientific (Orem, Utah)."}, "[7]": {"details": "cited from earlier work"}, "[8]": {"details": "10 uM lunasin, acid-extracted histones from untreated HeLa cells"}}, "note": "“Also recorded” adds a separate entry of the source."}
{"substance": "lunasin: natural, synthetically or recombinantly obtained soybean lunasin polypeptide (SEQ. ID. 2), small subunit of a cotyledon-specific 2S albumin", "values": [{"measurement": "H3 Lys 14 acetylation by PCAF (antibodies to H3 Ac-Lys9 and H3 Ac-Lys14)", "setting": "[1]; [8]", "result": "decreased H3 Lys 14 acetylation; also recorded: specifically binds to Lys 14, preventing it from being acetylated by PCAF"}, {"measurement": "histone H3 acetylation (diacetylated H3, Ac-Lys9+Ac-Lys14) by PCAF", "setting": "[1]; [8]", "result": "significant decrease in H3 acetylation; also recorded: dramatic reduction of histone H3 acetylation"}, {"measurement": "H3 acetylation by PCAF, undigested samples (Example 6)", "setting": "[1]; core histones from HeLa cells as template", "result": "significant reduction in H3 acetylation"}, {"measurement": "reduction of HMG-CoA reductase expression", "setting": "[2]", "result": "more than 50%"}, {"measurement": "tumor reduction activity compared to the control group", "setting": "[3]", "result": "statistically significant tumor reduction activity"}, {"measurement": "increase of LDL-receptor expression", "setting": "[4]", "result": "more than 60%"}, {"measurement": "increase of Sp1 levels in cholesterol-free media", "setting": "[5]; cholesterol-free media", "result": "~60", "unit": "%"}, {"measurement": "Sp1 levels, lunasin-treated versus control growth media", "setting": "[5]; growth media", "result": "not significantly different"}, {"measurement": "H3 acetylation by PCAF, undigested samples (Example 5)", "setting": "[6]", "result": "significant reduction in H3 acetylation"}, {"measurement": "water solubility", "setting": "[7]", "result": "water soluble"}]}
